Patent US6461997B1, “Triazole sulfones having herbicidal activity” (Monsanto Technology LLC, priority 1999, dated 2002)

What was measured:
DATST (jimsonweed) = assay: Pre-plant incorporated (PPI) herbicidal activity, warm season; assay type: in vivo, Datura stramonium; details: for inhibition at 10 g/ha / inhibition at 30 g/ha / inhibition at 100 g/ha / inhibition at 300 g/ha / inhibition at 900 g/ha: Datura stramonium, read-out: Percent inhibition DATST; for inhibition at 10 g/ha / inhibition at 30 g/ha / inhibition at 100 g/ha / inhibition at 300 g/ha / inhibition at 900 g/ha / Percent inhibition DATST: PPI application; for PPI activity (GR80) DATST: pre-plant incorporated, GR80 = lowest tested rate with 80% or greater inhibition, approx. 14 days after treating, 30/21° C.
How it was run: (§1)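 Seeds were sown on compacted topsoil and covered with soil that had been sprayed with compound in organic solvent and mixed through. Pots got 0.64 cm overhead irrigation, then greenhouse at 30/21 °C (warm-season species) or 18/13 °C (cool-season species) day/night. Percent inhibition versus untreated plants was scored about 14 days after planting.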

[1] = tested on: GALAP (catchweed bedstraw); assay: Pre-plant incorporated (PPI) herbicidal activity, cool season; assay type: in vivo, Galium aparine; details: for inhibition at 10 g/ha / inhibition at 30 g/ha / inhibition at 100 g/ha / inhibition at 300 g/ha / inhibition at 900 g/ha: Galium aparine, read-out: Percent inhibition GALAP; for inhibition at 10 g/ha / inhibition at 30 g/ha / inhibition at 100 g/ha / inhibition at 300 g/ha / inhibition at 900 g/ha / Percent inhibition GALAP: weed, PPI application; for PPI activity GR80, GALAP: pre-plant incorporated, lowest tested rate with 80% or greater inhibition, about 14 days
How it was run: as §1

LOLMG (annual ryegrass) = assay: as above; assay type: in vivo, Lolium multiflorum; details: for inhibition at 10 g/ha / inhibition at 30 g/ha / inhibition at 100 g/ha / inhibition at 300 g/ha / inhibition at 900 g/ha: Lolium multiflorum, read-out: Percent inhibition LOLMG; for inhibition at 10 g/ha / inhibition at 30 g/ha / inhibition at 100 g/ha / inhibition at 300 g/ha / inhibition at 900 g/ha / Percent inhibition LOLMG: weed, PPI application; for PPI activity GR80, LOLMG: pre-plant incorporated, lowest tested rate with 80% or greater inhibition, about 14 days
How it was run: as §1

[2] = tested on: AEGCY (jointed goatgrass); assay: as above; assay type: in vivo, Aegilops cylindrica; details: for inhibition at 10 g/ha / inhibition at 30 g/ha / inhibition at 100 g/ha / inhibition at 300 g/ha / inhibition at 900 g/ha: Aegilops cylindrica, read-out: Percent inhibition AEGCY; for inhibition at 10 g/ha / inhibition at 30 g/ha / inhibition at 100 g/ha / inhibition at 300 g/ha / inhibition at 900 g/ha / Percent inhibition AEGCY: weed, PPI application; for PPI activity GR80, AEGCY: pre-plant incorporated, lowest tested rate with 80% or greater inhibition, about 14 days
How it was run: as §1

[3] = tested on: AGSST (creeping bentgrass); assay: Post-emergence herbicidal activity, cool season; assay type: in vivo, Agrostis stolonifera; details: abraded plants sprayed at 300, 100, 30 and 10 g/ha; about 14 days after treatment
How it was run: (§2)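 Read-out was GR80, derived from percent growth inhibition relative to abraded, unsprayed control plants, observed roughly 14 days after spraying. Compounds in 50:50 acetone/water were applied at 300, 100, 30 and 10 g/ha to seedlings 9 to 14 days old whose foliage had been sand-abraded to aid uptake.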

[4] = tested on: AGRRE (quackgrass (seedling)); assay: Post-emergence herbicidal activity, cool season; assay type: in vivo, Elymus repens; details: abraded plants sprayed at 300, 100, 30 and 10 g/ha; about 14 days after treatment
How it was run: as §2

barley (HORVX) = assay: Selectivity test, PPI, cool season crop; assay type: in vivo, Hordeunm vulgare; details: PPI application; for inhibition at 10 g/ha / inhibition at 30 g/ha / inhibition at 100 g/ha / inhibition at 300 g/ha / inhibition at 900 g/ha: Hordeum vulgare, read-out: Percent inhibition HORVX
How it was run: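 Pre-plant incorporated: compound in organic solvent sprayed onto cover soil, mixed and laid over seeds; untreated soil for controls. Greenhouse after treatment: warm season 30/21° C., cool season 18/13° C. day/night. Percent inhibition versus untreated plants scored about 14 days after planting.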

## C=CCC(F)(F)S(=O)(=O)c1ncn(C(=O)N(CC)CC)n1 [Example 17, 1-(N,N-diethylcarbamoyl)-3-[(1,1-difluoro-3-butenyl)sulfonyl]-1,2,4-triazole]
DATST (jimsonweed); 10 g/ha
  inhibition at 10 g/ha: 0%
DATST (jimsonweed); 30 g/ha
  inhibition at 30 g/ha: 0%
DATST (jimsonweed); 100 g/ha
  inhibition at 100 g/ha: 30%
DATST (jimsonweed); 300 g/ha
  inhibition at 300 g/ha: 60%
DATST (jimsonweed); 900 g/ha
  inhibition at 900 g/ha: 99%
DATST (jimsonweed)
  PPI activity (GR80) DATST: 300 g/ha
[1]; 10 g/ha
  inhibition at 10 g/ha: 0%
[1]; 30 g/ha
  inhibition at 30 g/ha: 60%
[1]; 100 g/ha
  inhibition at 100 g/ha: 40%
[1]; 300 g/ha
  inhibition at 300 g/ha: 80%
[1]; 900 g/ha
  inhibition at 900 g/ha: 100%
[1]
  PPI activity GR80, GALAP: 100 g/ha
LOLMG (annual ryegrass); 10 g/ha
  inhibition at 10 g/ha: 45%
LOLMG (annual ryegrass); 30 g/ha
  inhibition at 30 g/ha: 60%
LOLMG (annual ryegrass); 100 g/ha
  inhibition at 100 g/ha: 95%
LOLMG (annual ryegrass); 300 g/ha
  inhibition at 300 g/ha: 100%
LOLMG (annual ryegrass); 900 g/ha
  inhibition at 900 g/ha: 100%
LOLMG (annual ryegrass)
  PPI activity GR80, LOLMG: 100 g/ha
[2]; 10 g/ha
  inhibition at 10 g/ha: 0%
[2]; 30 g/ha
  inhibition at 30 g/ha: 0%
[2]; 100 g/ha
  inhibition at 100 g/ha: 0%
[2]; 300 g/ha
  inhibition at 300 g/ha: 20%
[2]; 900 g/ha
  inhibition at 900 g/ha: 40%
[2]
  PPI activity GR80, AEGCY: 100 g/ha
[3]
  Post-emergence activity GR80, AGSST: 300 g/ha
[4]
  Post-emergence activity GR80, AGRRE: [empty]
Barley (HORVX); 10 g/ha
  inhibition at 10 g/ha: 0%
Barley (HORVX); 30 g/ha
  inhibition at 30 g/ha: 0%
Barley (HORVX); 100 g/ha
  inhibition at 100 g/ha: 10%
Barley (HORVX); 300 g/ha
  inhibition at 300 g/ha: 30%
Barley (HORVX); 900 g/ha
  inhibition at 900 g/ha: 60%

## C=C(C)CC(F)(F)S(=O)(=O)c1ncn(C(=O)N(CC)CC)n1 [Example 18]
DATST (jimsonweed); 10 g/ha
  inhibition at 10 g/ha: 0%
DATST (jimsonweed); 30 g/ha
  inhibition at 30 g/ha: 0%
DATST (jimsonweed); 100 g/ha
  inhibition at 100 g/ha: 0%
DATST (jimsonweed); 300 g/ha
  inhibition at 300 g/ha: 60%
DATST (jimsonweed); 900 g/ha
  inhibition at 900 g/ha: 100%
DATST (jimsonweed)
  PPI activity (GR80) DATST: 300 g/ha
[1]; 10 g/ha
  inhibition at 10 g/ha: 70%
[1]; 30 g/ha
  inhibition at 30 g/ha: 60%
[1]; 100 g/ha
  inhibition at 100 g/ha: 70%
[1]; 300 g/ha
  inhibition at 300 g/ha: 100%
[1]; 900 g/ha
  inhibition at 900 g/ha: 100%
[1]
  PPI activity GR80, GALAP: 100 g/ha
LOLMG (annual ryegrass); 10 g/ha
  inhibition at 10 g/ha: 20%
LOLMG (annual ryegrass); 30 g/ha
  inhibition at 30 g/ha: 60%
LOLMG (annual ryegrass); 100 g/ha
  inhibition at 100 g/ha: 50%
LOLMG (annual ryegrass); 300 g/ha
  inhibition at 300 g/ha: 100%
LOLMG (annual ryegrass); 900 g/ha
  inhibition at 900 g/ha: 100%
LOLMG (annual ryegrass)
  PPI activity GR80, LOLMG: 100 g/ha
[2]; 10 g/ha
  inhibition at 10 g/ha: 0%
[2]; 30 g/ha
  inhibition at 30 g/ha: 0%
[2]; 100 g/ha
  inhibition at 100 g/ha: 0%
[2]; 300 g/ha
  inhibition at 300 g/ha: 20%
[2]; 900 g/ha
  inhibition at 900 g/ha: 10%
[2]
  PPI activity GR80, AEGCY: * (activity observed, at least at highest rate, but <80% inhibition)
[3]
  Post-emergence activity GR80, AGSST: [empty]
[4]
  Post-emergence activity GR80, AGRRE: [empty]
Barley (HORVX); 10 g/ha
  inhibition at 10 g/ha: 0%
Barley (HORVX); 30 g/ha
  inhibition at 30 g/ha: 0%
Barley (HORVX); 100 g/ha
  inhibition at 100 g/ha: 0%
Barley (HORVX); 300 g/ha
  inhibition at 300 g/ha: 10%
Barley (HORVX); 900 g/ha
  inhibition at 900 g/ha: 60%

## C=C(Br)CC(F)(F)S(=O)(=O)c1ncn(C(=O)N(CC)CC)n1 [Example 19]
DATST (jimsonweed); 10 g/ha
  inhibition at 10 g/ha: 0%
DATST (jimsonweed); 30 g/ha
  inhibition at 30 g/ha: 0%
DATST (jimsonweed); 100 g/ha
  inhibition at 100 g/ha: 0%
DATST (jimsonweed); 300 g/ha
  inhibition at 300 g/ha: 90%
DATST (jimsonweed); 900 g/ha
  inhibition at 900 g/ha: 99%
DATST (jimsonweed)
  PPI activity (GR80) DATST: 300 g/ha
[1]; 10 g/ha
  inhibition at 10 g/ha: 85%
[1]; 30 g/ha
  inhibition at 30 g/ha: 100%
[1]; 100 g/ha
  inhibition at 100 g/ha: 100%
[1]; 300 g/ha
  inhibition at 300 g/ha: 50%
[1]; 900 g/ha
  inhibition at 900 g/ha: 100%
[1]
  PPI activity GR80, GALAP: 100 g/ha
LOLMG (annual ryegrass); 10 g/ha
  inhibition at 10 g/ha: 30%
LOLMG (annual ryegrass); 30 g/ha
  inhibition at 30 g/ha: 70%
LOLMG (annual ryegrass); 100 g/ha
  inhibition at 100 g/ha: 100%
LOLMG (annual ryegrass); 300 g/ha
  inhibition at 300 g/ha: 100%
LOLMG (annual ryegrass); 900 g/ha
  inhibition at 900 g/ha: 100%
LOLMG (annual ryegrass)
  PPI activity GR80, LOLMG: 300 g/ha
[2]; 10 g/ha
  inhibition at 10 g/ha: 0%
[2]; 30 g/ha
  inhibition at 30 g/ha: 0%
[2]; 100 g/ha
  inhibition at 100 g/ha: 20%
[2]; 300 g/ha
  inhibition at 300 g/ha: 50%
[2]; 900 g/ha
  inhibition at 900 g/ha: 20%
[2]
  PPI activity GR80, AEGCY: 300 g/ha
[3]
  Post-emergence activity GR80, AGSST: [empty]
[4]
  Post-emergence activity GR80, AGRRE: [empty]
Barley (HORVX); 10 g/ha
  inhibition at 10 g/ha: 0%
Barley (HORVX); 30 g/ha
  inhibition at 30 g/ha: 0%
Barley (HORVX); 100 g/ha
  inhibition at 100 g/ha: 20%
Barley (HORVX); 300 g/ha
  inhibition at 300 g/ha: 20%
Barley (HORVX); 900 g/ha
  inhibition at 900 g/ha: 45%

## C=C(CC(F)(F)S(=O)(=O)c1ncn(C(=O)N(CC)CC)n1)C[Si](C)(C)C [Example 20]
DATST (jimsonweed); 10 g/ha
  Percent inhibition DATST: 0%
DATST (jimsonweed); 30 g/ha
  Percent inhibition DATST: 0%
DATST (jimsonweed); 100 g/ha
  Percent inhibition DATST: 0%
DATST (jimsonweed); 300 g/ha
  Percent inhibition DATST: 20%
DATST (jimsonweed); 900 g/ha
  Percent inhibition DATST: 60%
DATST (jimsonweed)
  PPI activity (GR80) DATST: 300 g/ha
[1]
  PPI activity GR80, GALAP: [empty]
[1]; 10 g/ha
  Percent inhibition GALAP: 0%
[1]; 30 g/ha
  Percent inhibition GALAP: 0%
[1]; 100 g/ha
  Percent inhibition GALAP: 50%
[1]; 300 g/ha
  Percent inhibition GALAP: 90%
[1]; 900 g/ha
  Percent inhibition GALAP: 100%
LOLMG (annual ryegrass)
  PPI activity GR80, LOLMG: * (activity observed, at least at highest rate, but <80% inhibition)
LOLMG (annual ryegrass); 10 g/ha
  Percent inhibition LOLMG: 0%
LOLMG (annual ryegrass); 30 g/ha
  Percent inhibition LOLMG: 30%
LOLMG (annual ryegrass); 100 g/ha
  Percent inhibition LOLMG: 60%
LOLMG (annual ryegrass); 300 g/ha
  Percent inhibition LOLMG: 85%
LOLMG (annual ryegrass); 900 g/ha
  Percent inhibition LOLMG: 75%
[2]
  PPI activity GR80, AEGCY: * (activity observed, at least at highest rate, but <80% inhibition)
[2]; 10 g/ha
  Percent inhibition AEGCY: 0%
[2]; 30 g/ha
  Percent inhibition AEGCY: 0%
[2]; 100 g/ha
  Percent inhibition AEGCY: 0%
[2]; 300 g/ha
  Percent inhibition AEGCY: 0%
[2]; 900 g/ha
  Percent inhibition AEGCY: 0%
[3]
  Post-emergence activity GR80, AGSST: [empty]
[4]
  Post-emergence activity GR80, AGRRE: [empty]
Barley (HORVX); 10 g/ha
  Percent inhibition HORVX: 0%
Barley (HORVX); 30 g/ha
  Percent inhibition HORVX: 0%
Barley (HORVX); 100 g/ha
  Percent inhibition HORVX: 0%
Barley (HORVX); 300 g/ha
  Percent inhibition HORVX: 10%
Barley (HORVX); 900 g/ha
  Percent inhibition HORVX: 30%
